This is an account of results in patent US20020055130A1, “Method and product for regulating apoptosis” (National Jewish Center for Immunology and Respiratory …, priority 1997, published 2002).

The test system of assay [1] is p38 kinase. Description: p38 kinase activation, transfected HEK293 cells. It is filed as cell-based, Human. To be noted: transfection in HEK293 cells.
Assay [2] has as its system HEK293 cells. The experiment in a line: MEKK1 staining and TdT-mediated dUTP incorporation (DNA fragmentation) in transfected cells. It is filed as cell-based, Human. To be noted: after 48 hr. The protocol: Human embryonal kidney 293 cells (HEK293) stably expressing the EBNA-1 protein from Epstein-Barr virus (Invitrogen) were grown in Dulbecco's modified Eagle's medium (DMEM) supplemented with 100 U/ml penicillin/streptomycin and containing 10% bovine calf serum (BCS). The cells were transfected using lipofectamine (Gibco).
Cells were grown on glass coverslips and transfected using lipofectamine. Two days after transfection, the medium was removed and the cells were fixed in 2% paraformaldehyde, 3% sucrose in phosphate buffered saline (PBS) for 10 min at room temperature. Following three washes with PBS, the cells were permeabilized for 10 min with 2% Triton-X100 in PBS. After three PBS washes, the cells were blocked with filtered cultured medium for 15 min. The coverslips were then incubated 1 hour in TdT reaction mix (200 mM potassium cacodylate, 25 mM Tris.HCl, pH 6.6, 250 μg/ml BSA, 5 mM CoCl2, 0.25 U/μl TdT [Boehringer], 10 μM biotin-dUTP [Boehringer]) at 37° C. in a humidifed atmosphere. […] Images were taken using a Leica DMRXA microscope and analyzed with the SlideBook v2.0 software (Intelligent Imaging Innovations, Denver). […]

For assay [3], the system named is REF52 cells. Description: MEKK-induced apoptosis, microinjected REF52 cells. It is filed as cell-based. The protocol: (§1) Cells were prepared for the apoptosis studies as follows. Swiss 3T3 cells and REF52 cells were transfected with an expression plasmid encoding β-Galactoctosidase (β-Gal) detection of injected cells. One set of β-Gal transfected cells were then microinjected with an expression vector encoding MEKK1 370-738 protein. Another set of β-Gal transfected cells were then microinjected with an expression vector encoding truncated BXB-Raf protein.
(§2) A first group of transfected Swiss 3T3 cells and REF52 cells were treated with 50 μM beauvericin for 6 hours at 37° C. Beauvericin is a compound known to induce apoptosis in mammalian cells. A second group of cells were treated with a control buffer lacking beauvericin. The treated cells were then fixed in parafornaldehyde and permeabilized with saponin using protocols standard in the art. The permeabilized cells were then labelled by incubating the cells with a fluorescein-labelled anti-tubulin antibody (1:500; obtained from GIBCO, Gaithersburg, Md.) to detect cytoplasmic shrinkage or 10 μM propidium iodide (obtained from Sigma, St. Louis, Mo.) to stain DNA to detect nuclear condensation. The labelled cells were then viewed by differential fluorescent imaging using a Nikon Diaphot fluorescent microscope. […]

Assay [4] relates to Swiss 3T3 cells. Description: MEKK-induced apoptosis, microinjected Swiss 3T3 cells. It counts as cell-based. Here is the method:
as §1, §2

Assay [5] deals with C-Raf. The experiment in a line: Raf activation assay (kinase-inactive MEK-1 phosphorylation), L929 cells. It counts as cell-based, murine. The protocol: (§3) RafActivation Assay Cells were serum starved and challenged in the presence or absence of the appropriate cytokine or growth factors, as described above. Cells were lysed by scraping in ice cold RIPA buffer (50 mM Tris-HCl, pH 7.2, 150 mM NaCl, 0.1% SDS, 0.5% sodium deoxycholate, 1.0% Triton X-100, 10 mM sodium pyrophosphate, 25 mM β-glycerophosphate, 2 mM sodium vanadate, 2.1 µg/ml aprotinin) and the nuclei were pelletted. The supernatants were normalized for protein content and precleared with protein A Sepharose prior to immunoprecipitation with rabbit antiserum to the C terminus of C-Raf, rabbit anti-serum to A-Raf or rabbit antiserum to B-Raf (Santa Cruz Biotech., Santa Cruz, Calif.) and protein A Sepharose for 2-3 hr at 4° C. The beads were washed twice with ice cold RIPA and twice with PAN. A third of the immunoprecipitate was diluted with SDS sample buffer and used for immunoblot analysis. […] Wild-type recombinant MEK-1 was autophosphorylated in parallel as a marker. Reactions were terminated by the addition of 12.5 μl 5× SDS sample buffer, boiled, and subjected to SDS-PAGE and autoradiography.

Assay [6] concerns B-Raf. Described as above. It is filed as cell-based, murine. The protocol:
as §3

Assay [7] concerns L929 fibroblasts. Description: TNF and MEKK1COOH synergy, percentage of apoptotic cells (Lac Switch clones). It counts as cell-based, murine. Particulars: control L929 cells (4.1 LAC1), presence and absence of IPTG. The text has this: Approximately 20% of control L929 cells became apoptotic upon TNF exposure either in the presence and absence of IPTG. In L929 cells expressing the MEKK1COOH domain, exposure to TNF and IPTG increased the percentage of apoptotic cells to 40%, approximately a 2-fold increase.

For assay [8], the system named is L929 cells. Description: TNFα-mediated apoptosis of L929 cells (neutral red assay, propidium iodide staining). It counts as cell-based, murine. The protocol: Cell lines and culture. L929 cells (ATCC CCL1 were maintained in Dulbecco's modified Eagle's medium with 5% newborn claf serum and 5% bovine calf serum (BCS) supplemented with 100 ug/ml streptomycin and 100U/ml penicillin. The cells were grown in 10 cm dishes at 37° C. in 7.5% CO2. Cells were made quiescent where indicated by incubation in Dulbecco's modified Eagle's medium and 0.1% bovine serum albumin for 24 h. Recombinant murine TNFα and recombinant humanbFGF (147aa) were from R&D Systems, Minneapolis, Minn. Cells were pretreated where indicated with the MEK-1 inhibitor PD#098059 (Parke-Davis Pharmaceutical Corp. Ann Arbor, Mich.) for 1 h at 37° C. Cells were stimulated by incubation with the indicated cytokine or growth factor for various times at 37° C. […] Stimulation was stopped by rinsing the plates twice with ice cold phosphate buffered saline (PBS) and lysing the cells in the appropriate lysis buffer. Cells were scraped from the plates and nuclei were pelleted for 10 min at 14,000 RPM in a microcentrifuge.
Neutral Red Assay Uptake of the dye neutral red was used as one measure of cell viability following cytokine or growth factor treatment (Finter, N. B. (1969) J. Gen Virol. 5:419-427). 1.5×10^4-2.5×10^5 L929 cells/well were plated in 12 well tissue culture dishes in 1.25 ml of media. Cells were treated for 15-20 hr with various concentrations of TNFα and/or bFGF. 2.5 μl of 1% neutral red was added to the wells and incubated for 2 hr at 37° C. PBS. The neutral red was extracted with 1.0 ml of 50% ethanol, 50 mM Na-citrate pH 4.2 and absorbency was measured at […].
Propidium iodide staining Cells were plated on glass chamber slides (Nunc, Naperville, Ill.) at a concentration of 0.2-0.6×10^5 cells/ml. Ras expression was induced with 5 mM IPTG in Dulbecco's modified Eagle's medium with 0.1% BCS for 8-12 hr. Cells were exposed to TNFα (5 ng/ml) and/or bFGF (500 pg/ml) in Dulbecco's modified Eagle's medium with 0.1% BCS for 16 hr. The parental LACI expressing cell line (see below) was used as a control. Cells were washed twice in PBS, fixed in acetone:methanol (1:1) −20° C. for 5 min, air dried, washed twice in PBS, stained with 1 μg/ml propidium iodide (PI) in PBS for 20 min, washed in PBS, washed in H2O and mounted in 25% glycerol/PBS. PI fluorescence was observed using a Nikon inverted microscope equipped with epifluorescence and a […] filter. Images were analyzed using IP lab.

Assay [9] relates to p42/p44 MAPK. The experiment in a line: MAPK assay (EGFR662-681 peptide), L929 cells. It is filed as cell-based, murine. Here is the method:
MAPK Assay MAPK activity was measured exactly as described previously (Gardner, A. M., et al. (1994) Meth. Enzymol. 238:258-270) with the exception that MonoQ FPLC fractionation was replaced by step elution from a DEAE-Sephacel column using 0.5 M NaCl in loading buffer. The eluate was assayed in triplicate using the epidermal growth factor receptor 662-681 peptide (EGFR662-681) as a selective substrate for MAPK activity (Heasley, L. E., et al. (1994) American Journal of Physiology (Renal Fluid Electrolyte Physiol. 36) 267:F366-F373).

The test system of assay [10] is JNK. Description: JNK assay (solid state kinase assay with GST-Jun), L929 cells. It counts as cell-based, murine. Here is the method: JNK assay. JNK activity was measured using a solid state kinase assay in which glutathione S-transferase-c-Jun(1-79) (GST-JUN) cound to glutathione-Sepharose 4B beads was used to affinity pruify JNK and then JNK activity was measured in an in vitro kinase assay using the sepharose bound GST-Jun as a substrate (Hibi, M., et al. (1993) Genes & Development 7:2135-2148). Stimulated or unstimulated cells were lysed in 0.5% Nonidet P-40, 20 mM HEPES pH 7.2, 100 mM NaCl, 2 mM dithiothreitol, lmM EDTA, 1.0 mM phenylmethylsulfonylfluoride, 1 μg/ml aprotinin and the nuclei pelleted. Lysates were normalized for protein content. […] Binding to GST-Jun efficiently isolates the two major forms of JNK (p45and p55) and under the conditions used JNK isolation was linear for 10-250 μg of cell lysate. The lysates were rotated at 4° C. for 1-3 h. Beads were washed twice in lysis buffer and then twice in PAN (10 mM PIPES, pH 7.0, 100 mM NaCl, 21 μg/ml aprotinin). Kinase reactions were carried out at 30° C. for 15 min in 20 mM Hepes pH 7.2, 20 mM β-glycerophosphate, 10 mMp-nitrophenyl phosphate, 10 mM MgCl2, 1 mM dithiothreitol, 50 μm sodium vanadate, 10 μCi γ^32P-ATP 4300 Ci/mmole. The kinase reaction was linear from 0-30 min.

Consider “MEKK1: full length 196 kDa mouse MEKK1, HA-tagged, expressed by transfection”, for which the p38 kinase activation result in [1] was “did not activate the p38 kinase”. Moreover, in assay [2], the MEKK1-expressing cells apoptotic entry was “about 30%”.
Turning to “MEKK1 protein: MEKK1 370-738 protein expressed from a microinjected expression vector”, the “apoptotic morphology of expressing cells” value is “underwent cytoplasmic shrinkage and nuclear condensation leading to apoptotic death” in assay [3]; “underwent cytoplasmic shrinkage and nuclear condensation leading to apoptotic death” in assay [4].
Turning to TNFα, in [5], the C-Raf activation entry was “does not significantly activate”. Also, in assay [6], the B-Raf activation entry was “does not significantly activate”. Moreover, the “percentage of apoptotic cells” value in assay [7] is recorded as “Approximately 20%”. For the same substance, the “time required to induce a similar level of L929 cell death” value in assay [8] (1 ng/ml) fell in the range of 24 to 48 h. The “L929 cells being apoptotic” value in [8] (10 ng/ml, 15 hr) is “greater than 40%”. Besides, in [9], the “concentration required to stimulate p42/p44 MAPK 2-3 fold” value was “Greater than 10 ng/ml” and the “time to maximal stimulation of p42/p44 MAPK activity” value was in the range of 5 to 10 min. Moreover, the “MAPK activity stimulated above basal” value in [9] (1 ng/ml) worked out at 20%. For the same substance, the “effect on bFGF stimulation of MAPK activity” value in [9] (L929 cells) is “little or no effect on bFGF stimulation of MAPK activity”. Also, in assay [9] (L929 cells, TNFα 1 ng/ml where stated), the MAPK activity result is reported as “only modest stimulatory effects”. In assay [10], the “concentration giving maximal JNK activation” value came out at 1 ng/mL and the “time of peak JNK activity” value was 10 to 15 min. Besides, in assay [10] (0.1 ng/ml), the JNK activation entry is listed as “greater than four-fold”.
